The record followed here is patent publication US12459951B2, “Compounds that interact with RAS superfamily proteins for treatment of cancers, inflammatory diseases, rasopathies, and fibrotic disease” (SHY Therapeutics, LLC, priority 2022, dated 2025).

The subject of one experiment is Akt phosphorylation. The experiment is described as follows: Akt Phosphorylation Assay (western blot), Panc-1. It counts as cell-based, human. Conditions: at 10 μM, * = activation. Put shortly: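 Phospho-Akt (Ser473) was measured by western blot in lysates of KRas G12D Panc-1 cells exposed to test compound for 6 h at 37 °C, either at 10 μM final with 0.3% DMSO or as serial dilutions for IC50. One format used overnight 0.5% FBS starvation followed by a 15 min pulse of 1.5 ng/ml EGF. The other used cells in 10% FBS with no stimulation.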

The test system of the next experiment is Erk1/2 phosphorylation. The experiment is described as follows: Erk1/2 Phosphorylation Assay (western blot), Panc-1. Type of experiment: cell-based, human. As to conditions: at 10 μM, * = activation. Put shortly: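 Phospho-Erk1/2 (Thr202/Tyr204) was detected by western blot in lysates of Panc-1 cells (KRas G12D). These had 6 h, 37° C exposure to 10 μM compound or a dilution series for IC50, in 0.3% DMSO. Cells were either starved overnight in 0.5% FBS with a 15-min 1.5 ng/ml EGF pulse, or kept unstimulated in 10% FBS.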
A general note: A western blot detects proteins with antibodies after separation by electrophoresis.

The subject of a further experiment is TNF-alpha. The experiment is described as follows: TNF-alpha Quantification Assay (ELISA), LPS-stimulated RAW 264.7. As to conditions: Mus musculus, RAW264.7, read-out: TNFα: % inh. Also on record: inhibition: dose or concentration left out as unconfirmed. Type of experiment: cell-based. In general terms: In an ELISA, binding on a coated surface is turned into a signal by an enzyme label.

In the case of `COc1cccc(-c2cn3nc(-c4nccn4C)nc(N[C@H]4C[C@H](OC)C4)c3c2-c2ccccc2)c1Cl` [Compound 32, 6-(2-Chloro-3-methoxyphenyl)-N-((1r,3r)-3-methoxycyclobutyl)-2-(1-methyl-1H-imidazol-2-yl)-5-phenylpyrrolo[2,1-f][1,2,4]triazin-4-amine], the “% inh of Akt phosphorylation in Panc-1” value with Akt phosphorylation was “D (85-100% inhibition)”. Moreover, in the experiment on Erk1/2 phosphorylation, the “% inh of Erk1/2 phosphorylation in Panc-1” value is listed as “D (85-100% inhibition)”. Further, the inhibition at 10 µM in the experiment on TNF-alpha lay within 75 to 100%.

`COc1cccc(Nc2nc(-c3nccn3C)nn3ccc(-c4ccccc4)c23)n1` [Compound 40, N-(6-Methoxypyridin-2-yl)-2-(1-methyl-1H-imidazol-2-yl)-5-phenylpyrrolo[2,1-f][1,2,4]triazin-4-amine]: in the experiment on Akt phosphorylation, the “% inh of Akt phosphorylation in Panc-1” value is listed as 0 (0% inhibition). Also, in the experiment with Erk1/2 phosphorylation, the “% inh of Erk1/2 phosphorylation in Panc-1” value is on record as 0 (0% inhibition). In addition, the inhibition at 10 µM in the experiment on TNF-alpha was in the range of 25 to 49%.

For the compound `COc1cccc(Nc2nc(-c3nccn3C)nn3cc(-c4ccn(C(C)C)n4)c(-c4ccccc4)c23)n1` [Compound 23, 6-(1-Isopropyl-1H-pyrazol-3-yl)-N-(6-methoxypyridin-2-yl)-2-(1-methyl-1H-imidazol-2-yl)-5-phenylpyrrolo[2,1-f][1,2,4]triazin-4-amine], the “% inh of Akt phosphorylation in Panc-1” value in the experiment on Akt phosphorylation is listed as “D (85-100% inhibition)”. For the same compound, in the experiment on Erk1/2 phosphorylation, the “% inh of Erk1/2 phosphorylation in Panc-1” value was “D (85-100% inhibition)”. Moreover, the inhibition at 10 µM in the experiment with TNF-alpha is 75 to 100%.

Regarding `COc1cc(Nc2nc(-c3nccn3C)nn3cc(-c4cccnc4)c(C)c23)ncn1` [Compound 48, N-(6-Methoxypyrimidin-4-yl)-5-methyl-2-(1-methyl-1H-imidazol-2-yl)-6-(pyridin-3-yl)pyrrolo[2,1-f][1,2,4]triazin-4-amine], the “% inh of Akt phosphorylation in Panc-1” value in the experiment on Akt phosphorylation is on record as “D* (85-100% activation)”. Also, the “% inh of Erk1/2 phosphorylation in Panc-1” value in the experiment on Erk1/2 phosphorylation is reported as “A (1-25% inhibition)”. In addition, the inhibition at 10 µM with TNF-alpha lay within 1 to 24%.

Consider `Cc1c(-c2ccn(C)n2)cn2nc(-c3nccn3C)nc(Nc3cc(-c4ccccn4)ccn3)c12` [Compound 248, N-([2,4′-Bipyridin]-2′-yl)-5-methyl-2-(1-methyl-1H-imidazol-2-yl)-6-(1-methyl-1H-pyrazol-3-yl)pyrrolo[2,1-f][1,2,4]triazin-4-amine], for which the “% inh of Akt phosphorylation in Panc-1” value in the experiment with Akt phosphorylation is listed as “D* (85-100% activation)”. In addition, in the experiment on Erk1/2 phosphorylation, the “% inh of Erk1/2 phosphorylation in Panc-1” value is given as “C* (46-84% activation)”. The inhibition with TNF-alpha was in the range of 25 to 49%.

Consider `CO[C@H]1CC[C@@H](Nc2nc(-c3ccccn3)nn3cc(-c4ccn(C(C)C)n4)c(-c4ccccc4)c23)C1` (racemic) [Compound 24, rac 6-(1-Isopropyl-1H-pyrazol-3-yl)-N-((1R,3S)-3-methoxycyclopentyl)-5-phenyl-2-(pyridin-2-yl)pyrrolo[2,1-f][1,2,4]triazin-4-amine], for which the “% inh of Akt phosphorylation in Panc-1” value in the experiment on Akt phosphorylation was “A* (1-25% activation)”. Further, in the experiment on Erk1/2 phosphorylation, the “% inh of Erk1/2 phosphorylation in Panc-1” value is reported as 0 (0% inhibition). The inhibition at 10 µM in the experiment with TNF-alpha lay within 25 to 49%.

Turning to `COc1ccnc(Nc2nc(-c3nccn3C)nn3cc(-c4ccn(C(C)C)n4)c(C)c23)c1` [Compound 58, 6-(1-Isopropyl-1H-pyrazol-3-yl)-N-(4-methoxypyridin-2-yl)-5-methyl-2-(1-methyl-1H-imidazol-2-yl)pyrrolo[2,1-f][1,2,4]triazin-4-amine], in the experiment with Akt phosphorylation, the “% inh of Akt phosphorylation in Panc-1” value is listed as “A* (1-25% activation)”. Besides, the “% inh of Erk1/2 phosphorylation in Panc-1” value with Erk1/2 phosphorylation is listed as “D (85-100% inhibition)”. For the same compound, the inhibition at 10 µM in the experiment on TNF-alpha lay within 1 to 24%.

Turning to `COCCCNc1nc(-c2nccn2C)nn2cc(-c3cccc(OC)c3Cl)c(-c3ccccc3)c12` [Compound 30, 6-(2-Chloro-3-methoxyphenyl)-N-(3-methoxypropyl)-2-(1-methyl-1H-imidazol-2-yl)-5-phenylpyrrolo[2,1-f][1,2,4]triazin-4-amine], the “% inh of Akt phosphorylation in Panc-1” value in the experiment with Akt phosphorylation is on record as “D (85-100% inhibition)”. Moreover, the “% inh of Erk1/2 phosphorylation in Panc-1” value in the experiment on Erk1/2 phosphorylation was “D (85-100% inhibition)”. Moreover, in the experiment on TNF-alpha, the inhibition at 10 µM was in the range of 75 to 100%.

As to `COCCNc1nc(-c2nccn2C)nn2cc(-c3cccc(OC)c3Cl)c(-c3ccccc3)c12` [Compound 29, 6-(2-Chloro-3-methoxyphenyl)-N-(2-methoxyethyl)-2-(1-methyl-1H-imidazol-2-yl)-5-phenylpyrrolo[2,1-f][1,2,4]triazin-4-amine], the “% inh of Akt phosphorylation in Panc-1” value with Akt phosphorylation is “D (85-100% inhibition)”. In the experiment on Erk1/2 phosphorylation, the “% inh of Erk1/2 phosphorylation in Panc-1” value is on record as “D (85-100% inhibition)”. In addition, the inhibition at 10 µM with TNF-alpha lay in the range of 75 to 100%.

On to `COc1ccc(Nc2nc(-c3nccn3C)nn3cc(-c4ccn(C(C)C)n4)c(C)c23)cn1` [Compound 71, 6-(1-Isopropyl-1H-pyrazol-3-yl)-N-(6-methoxypyridin-3-yl)-5-methyl-2-(1-methyl-1H-imidazol-2-yl)pyrrolo[2,1-f][1,2,4]triazin-4-amine], for which, in the experiment with Akt phosphorylation, the “% inh of Akt phosphorylation in Panc-1” value is “D* (85-100% activation)”. In addition, in the experiment on Erk1/2 phosphorylation, the “% inh of Erk1/2 phosphorylation in Panc-1” value was “D* (85-100% activation)”. Moreover, in the experiment with TNF-alpha, the inhibition at 10 µM worked out at 0%.

On to `CO[C@H]1C[C@H](Nc2nc(-c3nccn3C)nn3cc(-c4ccn(C)n4)c(C4CC4)c23)C1` [Compound 275, 5-Cyclopropyl-N-((1r,3r)-3-methoxycyclobutyl)-2-(1-methyl-1H-imidazol-2-yl)-6-(1-methyl-1H-pyrazol-3-yl)pyrrolo[2,1-f][1,2,4]triazin-4-amine], for which the “% inh of Akt phosphorylation in Panc-1” value in the experiment with Akt phosphorylation is given as “D* (85-100% activation)”. Besides, in the experiment on Erk1/2 phosphorylation, the “% inh of Erk1/2 phosphorylation in Panc-1” value was 0 (0% inhibition). Moreover, the inhibition at 10 µM in the experiment with TNF-alpha is 0%.

For `Cn1ccnc1-c1nc(OCCN2CCCC2)c2c(-c3ccccc3)ccn2n1` [Compound 41, 2-(1-Methyl-1H-imidazol-2-yl)-5-phenyl-4-(2-(pyrrolidin-1-yl)ethoxy)pyrrolo[2,1-f][1,2,4]triazine], the “% inh of Akt phosphorylation in Panc-1” value in the experiment with Akt phosphorylation is on record as “A* (1-25% activation)”. Besides, the “% inh of Erk1/2 phosphorylation in Panc-1” value with Erk1/2 phosphorylation is recorded as 0 (0% inhibition). In addition, the inhibition at 10 µM in the experiment on TNF-alpha lay within 1 to 24%.

Take `CCn1ccc(-c2cn3nc(-c4nccn4C)nc(Nc4cc(OC)ncn4)c3c2C)n1` [Compound 64, 6-(1-Ethyl-1H-pyrazol-3-yl)-N-(6-methoxypyrimidin-4-yl)-5-methyl-2-(1-methyl-1H-imidazol-2-yl)pyrrolo[2,1-f][1,2,4]triazin-4-amine]: the “% inh of Akt phosphorylation in Panc-1” value in the experiment on Akt phosphorylation is reported as “D* (85-100% activation)”. Besides, the “% inh of Erk1/2 phosphorylation in Panc-1” value in the experiment with Erk1/2 phosphorylation is “A (1-25% inhibition)”. The inhibition at 10 µM in the experiment with TNF-alpha is 0%.

In the case of `COc1cccc(-c2cn3nc(-c4nccn4C)nc(N[C@H]4C[C@H](OC)C4)c3c2-c2ccccn2)c1F` [Compound 45, 6-(2-Fluoro-3-methoxyphenyl)-N-((1r,3r)-3-methoxycyclobutyl)-2-(1-methyl-1H-imidazol-2-yl)-5-(pyridin-2-yl)pyrrolo[2,1-f][1,2,4]triazin-4-amine], in the experiment on Akt phosphorylation, the “% inh of Akt phosphorylation in Panc-1” value is listed as 0 (0% inhibition). Further, the “% inh of Erk1/2 phosphorylation in Panc-1” value in the experiment with Erk1/2 phosphorylation is 0 (0% inhibition). In addition, the inhibition at 10 µM in the experiment with TNF-alpha lay within 75 to 100%.

In the case of `Cc1c(-c2ccn(C(C)C)n2)cn2nc(-c3nccn3C)nc(Nc3ccn(C(C)C)n3)c12` [Compound 72, N,6-bis(1-Isopropyl-1H-pyrazol-3-yl)-5-methyl-2-(1-methyl-1H-imidazol-2-yl)pyrrolo[2,1-f][1,2,4]triazin-4-amine], the “% inh of Akt phosphorylation in Panc-1” value with Akt phosphorylation is “D* (85-100% activation)”. In the experiment with Erk1/2 phosphorylation, the “% inh of Erk1/2 phosphorylation in Panc-1” value was “D* (85-100% activation)”. Also, the inhibition at 10 µM with TNF-alpha lay within 1 to 24%.

With `Cc1c(-c2ccn(C)n2)cn2nc(-c3nccn3C)nc(Nc3cc(OC(F)F)n(C)n3)c12` [Compound 254, N-(5-(Difluoromethoxy)-1-methyl-1H-pyrazol-3-yl)-5-methyl-2-(1-methyl-1H-imidazol-2-yl)-6-(1-methyl-1H-pyrazol-3-yl)pyrrolo[2,1-f][1,2,4]triazin-4-amine], in the experiment with Akt phosphorylation, the “% inh of Akt phosphorylation in Panc-1” value is given as “D* (85-100% activation)”. Further, the “% inh of Erk1/2 phosphorylation in Panc-1” value in the experiment with Erk1/2 phosphorylation is listed as “D* (85-100% activation)”. Further, the inhibition at 10 µM in the experiment on TNF-alpha is 0%.

On to `COc1cnc(Nc2nc(-c3nccn3C)nn3cc(-c4ccn(C(C)C)n4)c(C)c23)nc1` [Compound 56, 6-(1-Isopropyl-1H-pyrazol-3-yl)-N-(5-methoxypyrimidin-2-yl)-5-methyl-2-(1-methyl-1H-imidazol-2-yl)pyrrolo[2,1-f][1,2,4]triazin-4-amine], for which the “% inh of Akt phosphorylation in Panc-1” value in the experiment with Akt phosphorylation is on record as “B* (26-49% activation)”. Also, the “% inh of Erk1/2 phosphorylation in Panc-1” value in the experiment on Erk1/2 phosphorylation was “C (50-84% inhibition)”. For the same compound, the inhibition at 10 µM with TNF-alpha lay within 1 to 24%.

Consider `COCCO[C@H]1C[C@H](Nc2nc(-c3nccn3C)nn3cc(-c4cccc(OC)c4F)c(-c4ccccc4)c23)C1` [Compound 44, 6-(2-Fluoro-3-methoxyphenyl)-N-((1r,3r)-3-(2-methoxyethoxy)cyclobutyl)-2-(1-methyl-1H-imidazol-2-yl)-5-phenylpyrrolo[2,1-f][1,2,4]triazin-4-amine], for which the “% inh of Akt phosphorylation in Panc-1” value in the experiment on Akt phosphorylation was “B (26-49% inhibition)”. The “% inh of Erk1/2 phosphorylation in Panc-1” value in the experiment on Erk1/2 phosphorylation is “B (26-49% inhibition)”. For the same compound, in the experiment with TNF-alpha, the inhibition at 10 µM was in the range of 1 to 24%.

Regarding `COc1cccc(-c2cn3nc(-c4nccn4C)nc(N[C@H]4C[C@H](OC)C4)c3c2-c2ccccc2)c1F` [Compound 42, 6-(2-Fluoro-3-methoxyphenyl)-N-((1r,3r)-3-methoxycyclobutyl)-2-(1-methyl-1H-imidazol-2-yl)-5-phenylpyrrolo[2,1-f][1,2,4]triazin-4-amine], in the experiment with Akt phosphorylation, the “% inh of Akt phosphorylation in Panc-1” value was “D (85-100% inhibition)”. Moreover, the “% inh of Erk1/2 phosphorylation in Panc-1” value with Erk1/2 phosphorylation is reported as “D (85-100% inhibition)”. Also, the inhibition at 10 µM with TNF-alpha fell in the range of 75 to 100%.
